# Values joined by “and” are separate entries in the source; they are usually repeats but may differ in a detail not shown here. Equal values may be shown once.
# How the values were obtained:
# Format in all cases: binding
# CD16a158V [1] = molecular target: T1, CD16a158V (Homo sapiens, UniProt P08637, F176V); experiment: Microscale Thermophoresis; details: read-out: MST-CD16a158V KD
# Procedure: Target proteins (poly-histidine tagged, 600 nM) were fluorescently labeled combination with an equal volume of dye (200 nM, His-Tag labeling kit RED-tris-NTA NanoTemper: MO-L008) PBST. The mixture rotated in the dark for 45 min before being spun down at 12000 rpm for 15 min to remove uncomplexed material. The fluorescence of the removed supernatant was adjusted to for a test concentration of 40-80 nM (2× the final measured). Test ligands were prepared across a 12-point dilution series in a 96-well PCR plate at a volume of 20 uL at 2× the concentration desired for testing (0.2% BSA in PBST). The dilution series was then combined with an equal volume of the labeled target at 2× the concentration desired for testing. Capillaries were added to the wells of the combined target/ligand complex and measured by MST. Measurements were taken using a Nanotemper Monolith NT.115, and the data was analyzed using NanoTemper MO.Control software.
# CD16a158V [2] = molecular target: T1, CD16a158V; experiment: Biotinylated Ligand ELISA Assay; details: Biotinylated CD16a protein at 10 nM
# Procedure: (§1) Coat ELISA plates (Costar 3922) using Neutravidin (Thermo 31000) at 5 μg/ml (100 μl/well) for 1 hour at 37° C. Plates were washed 4 times with PBST (PBS, 0.05% Tween 20-200 μl, 1 minute/wash) then blocked using 200 μl 5% bovine serum albumin (BSA, Heat Shock, Fraction V-American Bio AB01088-00100) in PBST for 2 hours at 25° C. with moderate shaking. BSA was removed and plates were washed. Biotinylated ligands diluted in PBSTB (PBST+0.1% BSA) were then added (100 μl/well) and incubated for 1 hour at 25° C. with gentle shaking. Ligands were removed and plates were washed. Any remaining unoccupied neutravidin binding sites were blocked by adding 100 μM Biotin (Fisher BP232-1) (100 μl/well) and incubated for 1 hour at 25° C. with gentle shaking. Plates were then washed. […] Protein was removed and plates were washed. Streptavidin-HRP (Invitrogen 434323) diluted 1:5000 in PBSTB was added (100 μl/well) and incubated for 1 hour at 25° C. with gentle shaking. Wash plates. Substrate (Super Signal ELISA Pico Chemiluminescent Substrate-Thermo 37069) was added (100 μl/well) and plates were incubated for 5 minutes at 25° C. with gentle shaking. Luminescence was then measured on the Biotek Synergy H1 microplate reader.
# CD16a158F [3] = molecular target: T2, CD16a158F (Homo sapiens, UniProt P08637); experiment: Biotinylated Ligand ELISA Assay; design: purchased Acro Biosystems CDA-H82E8; details: Biotinylated CD16a protein at 10 nM
# T2 sequence (P08637 17-208 limits assumed): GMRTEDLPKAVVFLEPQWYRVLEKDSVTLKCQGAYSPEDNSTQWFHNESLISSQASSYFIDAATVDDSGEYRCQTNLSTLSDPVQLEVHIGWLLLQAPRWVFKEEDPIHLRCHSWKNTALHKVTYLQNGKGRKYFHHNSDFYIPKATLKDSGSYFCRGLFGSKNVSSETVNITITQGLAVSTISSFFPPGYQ
# Procedure: as §1
# CD16a158V [4] = experiment: NHS-Ester ELISA Assay; details: NHS-Ester ligands 250 μM; 10 nM biotinylated CD16a protein
# Procedure: (§2) Pretreat ELISA plates (Costar 3922) using 200 μl […] (BSA, Heat Shock, Fraction V-American Bio AB01088-00100) in PBS for 2 hours at 25° C. with moderate shaking. BSA was removed and plates were washed. NHS-Ester ligands were diluted in PBS to 250 μM then added (100 μl/well) and incubated for 1 hour at 37° C. […] Plates are removed from the incubator and washed. CD16a/Streptavidin.HRP mixture was added to the plates (100 μl/well) and incubated for 1 hour at 25° C. with gentle shaking. Wash plates. Substrate (Super Signal ELISA Pico Chemiluminescent Substrate-Thermo 37069) was added (100 μl/well) and plates were incubated for 5 minutes at 25° C. with gentle shaking. Luminescence was then measured on the Biotek Synergy H1 microplate reader.
# CD16a158F [5] = molecular target: T2, CD16a158F; experiment: NHS-Ester ELISA Assay; design: purchased Acro Biosystems CDA-H82E8; details: NHS-Ester ligands 250 μM; 10 nM biotinylated CD16a protein
# Procedure: as §2
# CD16a158F [6] = molecular target: T2, CD16a158F; experiment: Biotin ELISA, interaction with various receptors (Example 55); details: three replicate values per compound
# Procedure: as §1
# (§3) Using similar methods as Examples 47 or 53, interactions with a number of receptors were measured. In some embodiments, “stock” is antibody only, and “control” is an antibody that went through the same procedure except using DMSO only as opposed to a compound. When contacted with targeting moieties such as antibodies in the Examples, compounds, e.g., I-95, I-96, etc. can react through their reactive groups
# CD32b = molecular target: T3, CD32b (Homo sapiens, UniProt P31994); experiment: as above; details: three replicate values per compound
# T3 sequence (P31994 43-310): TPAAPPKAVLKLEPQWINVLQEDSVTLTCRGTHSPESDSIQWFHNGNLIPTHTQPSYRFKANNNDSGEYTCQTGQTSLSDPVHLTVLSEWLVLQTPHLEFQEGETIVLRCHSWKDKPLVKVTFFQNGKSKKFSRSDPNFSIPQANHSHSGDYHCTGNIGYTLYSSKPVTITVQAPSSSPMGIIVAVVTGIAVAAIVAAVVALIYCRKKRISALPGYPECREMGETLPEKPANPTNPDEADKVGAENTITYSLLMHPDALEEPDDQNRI
# Procedure: as §1, §3
# CD32a-R167 = experiment: as above; details: three replicate values per compound
# Procedure: as §1, §3
# CD3ed = CD3ed (Homo sapiens, UniProt P04234+P07766); experiment: as above; details: three replicate values per compound
# Sequence of CD3ed (P07766 23-126 limits assumed): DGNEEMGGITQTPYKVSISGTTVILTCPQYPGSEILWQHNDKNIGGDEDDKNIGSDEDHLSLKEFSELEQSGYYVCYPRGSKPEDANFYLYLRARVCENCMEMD
# Sequence of CD3ed (P04234 22-105 limits assumed): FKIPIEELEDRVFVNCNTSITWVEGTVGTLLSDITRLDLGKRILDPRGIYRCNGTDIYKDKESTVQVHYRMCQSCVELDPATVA
# Procedure: as §1, §3
# CD64 = CD64 (Homo sapiens, UniProt P12314); experiment: as above; details: three replicate values per compound
# Sequence of CD64 (P12314 16-374): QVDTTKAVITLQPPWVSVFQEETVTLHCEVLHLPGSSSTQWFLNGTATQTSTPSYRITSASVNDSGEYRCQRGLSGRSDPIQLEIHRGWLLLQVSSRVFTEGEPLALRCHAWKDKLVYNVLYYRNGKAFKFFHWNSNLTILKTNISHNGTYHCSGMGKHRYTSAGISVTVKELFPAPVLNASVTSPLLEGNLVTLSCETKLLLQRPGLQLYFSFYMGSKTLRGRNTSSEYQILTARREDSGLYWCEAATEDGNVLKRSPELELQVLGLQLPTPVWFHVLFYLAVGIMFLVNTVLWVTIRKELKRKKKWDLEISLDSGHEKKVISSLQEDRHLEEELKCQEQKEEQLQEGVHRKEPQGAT
# Procedure: as §1, §3
# CD16a158V [7] = molecular target: T1, CD16a158V; experiment: as above; details: three replicate values per compound
# Procedure: as §1, §3
# CD32a H167 = molecular target: T4, CD32a H167 (Homo sapiens, UniProt P12318); experiment: as above; details: three replicate values per compound
# T4 sequence (P12318 36-218 limits assumed): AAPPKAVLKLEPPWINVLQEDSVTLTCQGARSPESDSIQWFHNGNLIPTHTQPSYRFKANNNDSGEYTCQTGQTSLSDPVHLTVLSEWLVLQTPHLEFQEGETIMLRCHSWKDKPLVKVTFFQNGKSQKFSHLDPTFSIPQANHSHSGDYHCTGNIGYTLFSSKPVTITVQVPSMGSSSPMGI
# Procedure: as §1, §3
# [8] = Biotin ELISA, No Protein (Example 55); details: three replicate values per compound
# Procedure: as §1, §3
# T1 sequence (P08637 17-208 F176V): as the sequence (P08637 17-208 limits assumed) above, with F160V counted along it
Kd (CD16a158V [1]) [nM],SMILES,NHS ester ELISA-CD16a158V Binding (RLU) (CD16a158V [4]),NHS ester ELISA-CD16a158F Binding (RLU) (CD16a158F [5]),other results
500 to 1000,COc1ccc(OC)c(N2CC(C(=O)Nc3ccc(CC4N=NC(COCCOCCOCCOCCOCCOCCOCCOCCNC(=O)CCCC[C@@H]5SC[C@@H]6NC(=O)N[C@@H]65)=N4)cc3)CC2=O)c1 (stereo partly drawn) [Compound I-41],,,
,O=C(CCCC[C@@H]1SC[C@@H]2NC(=O)N[C@@H]21)NCCOCCOCCOCCOCCOCCOCCOCCOCCNC(=O)c1ccc(S(=O)(=O)N2CCC3(CC2)NC(=O)N(c2ccccc2)C3=O)cc1 [Compound I-22],,,"Biotinylated Ligand ELISA-CD16a158V Binding (RLU) (CD16a158V [2]): B (a relative luminescence value (RLU) of 10,000-100,000); Biotinylated Ligand ELISA-CD16a158F Binding (RLU) (CD16a158F [3]): B (a relative luminescence value (RLU) of 10,000-100,000)"
100 to 500,COc1ccccc1N1CC(C(=O)Nc2ccc(-c3cn(CCOCCOCCOCCOCCOCCOCCOCCOCCNC(=O)CCCC[C@@H]4SC[C@@H]5NC(=O)N[C@@H]54)nn3)cc2)CC1=O (stereo partly drawn) [Compound I-35],,,
,COc1ccc(OC)c(N2C(=O)NC3(CCN(C(=O)Nc4cccc(-c5cn(CCOCCOCCOCCOCCOCCOCCOCCOCCOCCOCCOCCOCCC(=O)ON6C(=O)CCC6=O)nn5)c4)CC3)C2=O)c1 [Compound I-1],"C (a relative luminescence value (RLU) of 1,000-10,000)","B (a relative luminescence value (RLU) of 10,000-100,000)",
,"O=C(CCCC[C@@H]1SC[C@@H]2NC(=O)N[C@@H]21)NCCOCCOCCOCCOCCOCCOCCOCCOCCNC(=O)c1cnc(N2CCC3(CC2)NC(=O)N(c2ccccc2)C3=O)s1 [Compound I-13, 5-[(3aS,4S,6aR)-2-oxo-hexahydro-1H-thieno[3,4-d]imidazol-4-yl]-N-{26-[(2-{2,4-dioxo-3-phenyl-1,3,8-triazaspiro[4.5]decan-8-yl}-1,3-thiazol-5-yl)formamido]-3,6,9,12,15,18,21,24-octaoxahexacosan-1-yl}pentanamide]",,,Biotin ELISA Results CD16a-158F (CD16a158F [6]): 10817 and 15276 and 9605; Biotin ELISA Results CD32b (CD32b): 7721 and 7105 and 9481; Biotin ELISA Results CD32a-R167 (CD32a-R167): 8032 and 6483 and 10638; Biotin ELISA Results CD3ed (CD3ed): 4252 and 15476 and 72836*; Biotin ELISA Results CD64 (CD64): 45845 and 36876 and 49943; Biotin ELISA Results CD16a-158V (CD16a158V [7]): 4673 and 4920 and 4565; Biotin ELISA Results CD32a-H167 (CD32a H167): 15516 and 14898 and 8681; Biotin ELISA Results No Protein [8]: 6804 and 19233 and 14386
,COc1ccc(OC)c(N2CC(C(=O)Nc3ccc(-c4cn(CCOCCOCCOCCOCCOCCOCCOCCOCCC(=O)ON5C(=O)CCC5=O)nn4)cc3)CC2=O)c1 (stereo not drawn) [Compound I-26],"C (a relative luminescence value (RLU) of 1,000-10,000)","C (a relative luminescence value (RLU) of 1,000-10,000)",
,O=C(CCOCCOCCOCCOCCOCCOCCOCCOCCOCCOCCOCCOCCn1cc(-c2ccc(NC(=O)N3CCC4(CC3)NC(=O)N(Cc3ccccc3)C4=O)cc2)nn1)ON1C(=O)CCC1=O [Compound I-2],"C (a relative luminescence value (RLU) of 1,000-10,000)","B (a relative luminescence value (RLU) of 10,000-100,000)",
,COc1ccc(OC)c(N2CC(C(=O)Nc3ccc(-c4cn(CCOCCOCCOCCOCCOCCOCCOCCOCCOCCOCCOCCOCCC(=O)ON5C(=O)CCC5=O)nn4)cc3)CC2=O)c1 (stereo not drawn) [Compound I-25],"C (a relative luminescence value (RLU) of 1,000-10,000)","C (a relative luminescence value (RLU) of 1,000-10,000)",
100 to 500,COc1ccc(OC)c(N2CC(C(=O)Nc3cccc(-c4cn(CCOCCOCCOCCOCCOCCOCCOCCOCCNC(=O)CCCC[C@@H]5SC[C@@H]6NC(=O)N[C@@H]65)nn4)c3)CC2=O)c1 (stereo partly drawn) [Compound I-40],,,
,O=C(CCOCCOCCOCCOCCOCCOCCOCCOCCOCCOCCOCCOCCn1cc(-c2cccc(NC(=O)N3CCC4(CC3)NC(=O)N(c3ccccc3)C4=O)c2)nn1)ON1C(=O)CCC1=O [Compound I-9],"B (a relative luminescence value (RLU) of 10,000-100,000)","B (a relative luminescence value (RLU) of 10,000-100,000)",
100 to 500,COc1cccc(N2CC(C(=O)Nc3ccc(-c4cn(CCOCCOCCOCCOCCOCCOCCOCCOCCNC(=O)CCCC[C@@H]5SC[C@@H]6NC(=O)N[C@@H]65)nn4)cc3)CC2=O)c1 (stereo partly drawn) [Compound I-34],,,
,O=C(CCOCCOCCOCCOCCOCCOCCOCCOCCOCCOCCOCCOCCNC(=O)c1cnc(N2CCC3(CC2)NC(=O)N(Cc2ccccc2)C3=O)nc1)ON1C(=O)CCC1=O [Compound I-8],"B (a relative luminescence value (RLU) of 10,000-100,000)","C (a relative luminescence value (RLU) of 1,000-10,000)",
100 to 500,COc1ccc(N2CC(C(=O)Nc3ccc(-c4cn(CCOCCOCCOCCOCCOCCOCCOCCOCCNC(=O)CCCC[C@@H]5SC[C@@H]6NC(=O)N[C@@H]65)nn4)cc3)CC2=O)cc1 (stereo partly drawn) [Compound I-33],,,
500 to 1000,CCOc1ccc(N2CC(C(=O)N3CCC(C(=O)NCCOCCOCCOCCOCCOCCOCCOCCOCCNC(=O)CCCC[C@@H]4SC[C@@H]5NC(=O)N[C@@H]54)CC3)CC2=O)cc1 (stereo partly drawn) [Compound I-37],,,
,O=C(CCOCCOCCOCCOCCOCCOCCOCCOCCOCCOCCOCCOCCn1cc(-c2cnc(N3CCC4(CC3)NC(=O)N(Cc3ccccc3)C4=O)nc2)nn1)ON1C(=O)CCC1=O [Compound I-7],"B (a relative luminescence value (RLU) of 10,000-100,000)","C (a relative luminescence value (RLU) of 1,000-10,000)",
100 to 500,COc1ccc(OC)c(N2CC(C(=O)Nc3ccc(Cn4cnc(CCOCCOCCOCCOCCOCCOCCOCCOCCNC(=O)CCCC[C@@H]5SC[C@@H]6NC(=O)N[C@@H]65)n4)cc3)CC2=O)c1 (stereo partly drawn) [Compound I-38],,,
,O=C(CCOCCOCCOCCOCCOCCOCCOCCOCCOCCOCCOCCOCCn1cc(-c2cccc(-c3cnc(N4CCC5(CC4)NC(=O)N(Cc4ccccc4)C5=O)nc3)c2)nn1)ON1C(=O)CCC1=O [Compound I-6],"B (a relative luminescence value (RLU) of 10,000-100,000)","B (a relative luminescence value (RLU) of 10,000-100,000)",
